# Measurements published in patent EP4603105A1, “PHARMACEUTICAL COMPOSITION CONTAINING CYCLIC COMPOUND HAVING SELECTIVE KRAS INHIBITORY EFFECT AGAINST HRAS AND NRAS” (CHUGAI SEIYAKU KABUSHIKI KAISHA, priority 2022, dated 2024).
# How the values were obtained:
# [1] = biological target: HRAS wild-type protein (Homo sapiens, UniProt P01112); assay: Binding to HRAS by surface plasmon resonance (SPR), KD and KD ratio to KRAS; conditions: ratio of the KD value with respect to HRAS wild-type protein to the KD value with respect to KRAS
# Outline: (§1)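 Compound binding is evaluated by SPR single-cycle kinetics, with concentrations added intermittently from low to high for 75 s each. Target surfaces carry GDP-loaded biotinylated Avi-RAS at about 100–300 RU, regenerated after each cycle; temperature 30°C. A 1:1 binding model gives KD.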
# [2] = system: human lung cancer strain NCI-H441; type: cell-based
# Outline: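 Proliferation was scored by […] measured after the reagent was added to cultures kept at 37°C in 5% carbon dioxide.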
# [3] = biological target: GDP-bound NRAS wild-type protein (Homo sapiens, UniProt P01111); assay: Binding to NRAS by surface plasmon resonance (SPR), KD and KD ratio to KRAS; conditions: ratio of the KD value with respect to GDP-bound NRAS wild-type protein to the KD value with respect to KRAS
# Outline: as §1
# GDP-bound NRAS wild-type protein, sequence (P01111 whole entry): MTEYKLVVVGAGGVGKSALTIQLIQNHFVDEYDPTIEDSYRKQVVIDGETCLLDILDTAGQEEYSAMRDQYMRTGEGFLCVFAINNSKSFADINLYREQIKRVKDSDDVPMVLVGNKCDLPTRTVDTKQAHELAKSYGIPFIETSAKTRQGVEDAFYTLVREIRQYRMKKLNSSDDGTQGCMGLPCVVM
# HRAS wild-type protein, sequence (P01112 whole entry): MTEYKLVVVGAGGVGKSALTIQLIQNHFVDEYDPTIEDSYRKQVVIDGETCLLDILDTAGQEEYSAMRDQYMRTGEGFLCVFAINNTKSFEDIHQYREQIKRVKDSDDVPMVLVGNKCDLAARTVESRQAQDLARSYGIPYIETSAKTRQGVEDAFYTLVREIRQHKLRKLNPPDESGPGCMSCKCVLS
SMILES,IC50 [2] [nM],HRAS /KRAS [1],NRAS /KRAS [3]
CCCN(C)C(=O)[C@@H]1CC(=O)N(C)[C@@H](C(C)C)C(=O)N[C@@H]([C@@H](C)CC)C(=O)N(C)CC(=O)N(C)[C@H]2C/C=C\CCN(C2=O)[C@@H](Cc2ccc(C(F)(F)F)cc2)C(=O)N(C)CC(=O)N[C@@H](CCc2ccc(C(F)(F)F)c(OC)c2)C(=O)N2C[C@H](OCC)C[C@H]2C(=O)NC2(CCC2)C(=O)N(C)[C@@H](C2CCCC2)C(=O)N1C [PP2020],8.3,A (a compound having 10 or more and less than 20 is denoted as A),A (a compound having 10 or more and less than 20 is denoted as A)
CCCN(C)C(=O)[C@@H]1CC(=O)N(C)[C@@H](CC(F)F)C(=O)N[C@@H]([C@@H](C)CC)C(=O)N(C)CC(=O)N(C)[C@H]2C/C=C\CCN(C2=O)[C@@H](Cc2ccc(C(F)(F)F)cc2)C(=O)N(C)CC(=O)N[C@@H](CCc2cc(F)c(C(F)(F)F)c(F)c2)C(=O)N2C[C@H](OCC)C[C@H]2C(=O)NC2(CC(C)(C)C2)C(=O)N(C)[C@@H](C2CCCC2)C(=O)N1C [PP2030],4.5,A (a compound having 10 or more and less than 20 is denoted as A),A (a compound having 10 or more and less than 20 is denoted as A)
CCCN(C)C(=O)[C@@H]1CC(=O)N(C)[C@@H](COCC)C(=O)N[C@@H]([C@@H](C)CC)C(=O)N(C)CC(=O)N(C)[C@H]2C/C=C\CCN(C2=O)[C@@H](Cc2ccc(C(F)(F)F)cc2)C(=O)N(C)CC(=O)N[C@@H](CCc2cc(F)c(C(F)(F)F)c(F)c2)C(=O)N2C[C@H](OCC)C[C@H]2C(=O)NC2(CC(C)(C)C2)C(=O)N(C)[C@@H](C2CCCC2)C(=O)N1C [PP2031],5.5,B (a compound having 3 or more and less than 10 is denoted as B),B (a compound having 3 or more and less than 10 is denoted as B)
CCOC[C@H]1C(=O)N[C@@H]([C@@H](C)CC)C(=O)N(C)CC(=O)N(C)[C@H]2C/C=C\CCN(C2=O)[C@@H](Cc2ccc(C(F)(F)F)cc2)C(=O)N(C)CC(=O)N[C@@H](CCc2cc(F)c(C(F)(F)F)c(F)c2)C(=O)N2C[C@H](OCC)C[C@H]2C(=O)NC2(CC(C)(C)C2)C(=O)N(C)[C@@H](C2CCCC2)C(=O)N(C)[C@H](C(=O)N(C)CC)CC(=O)N1C [PP2032],8.1,B (a compound having 3 or more and less than 10 is denoted as B),A (a compound having 10 or more and less than 20 is denoted as A)
CCO[C@@H]1C[C@H]2C(=O)NC3(CC(C)(C)C3)C(=O)N(C)[C@@H](C3CCCC3)C(=O)N(C)[C@H](C(=O)N(C)CC)CC(=O)N(C)[C@@H](C(C)C)C(=O)N[C@@H]([C@@H](C)CC)C(=O)N(C)CC(=O)N(C)[C@H]3C/C=C\CCN(C3=O)[C@@H](Cc3ccc(C(F)(F)F)cc3)C(=O)N(C)CC(=O)N[C@@H](CCc3cc(F)c(C(F)(F)F)c(F)c3)C(=O)N2C1 [PP2034],8.8,A (a compound having 10 or more and less than 20 is denoted as A),A (a compound having 10 or more and less than 20 is denoted as A)
CCO[C@@H]1C[C@H]2C(=O)NC3(CC(C)(C)C3)C(=O)N(C)[C@@H](C3CCCC3)C(=O)N(C)[C@H](C(=O)N(C)CC)CC(=O)N(C)[C@@H](C3CC3)C(=O)N[C@@H]([C@@H](C)CC)C(=O)N(C)CC(=O)N(C)[C@H]3C/C=C\CCN(C3=O)[C@@H](Cc3ccc(C(F)(F)F)cc3)C(=O)N(C)CC(=O)N[C@@H](CCc3cc(F)c(C(F)(F)F)c(F)c3)C(=O)N2C1 [PP2036],9.1,A (a compound having 10 or more and less than 20 is denoted as A),A (a compound having 10 or more and less than 20 is denoted as A)
CCO[C@@H]1C[C@H]2C(=O)NC3(CC(C)(C)C3)C(=O)N(C)[C@@H](C3CCCC3)C(=O)N(C)[C@H](C(=O)N(C)CC)CC(=O)N(C)[C@@H](C3CCC3)C(=O)N[C@@H]([C@@H](C)CC)C(=O)N(C)CC(=O)N(C)[C@H]3C/C=C\CCN(C3=O)[C@@H](Cc3ccc(C(F)(F)F)cc3)C(=O)N(C)CC(=O)N[C@@H](CCc3cc(F)c(C(F)(F)F)c(F)c3)C(=O)N2C1 [PP2038],5.5,A (a compound having 10 or more and less than 20 is denoted as A),A (a compound having 10 or more and less than 20 is denoted as A)
CCCN(C)C(=O)[C@@H]1CC(=O)N(C)[C@@H](CC(F)F)C(=O)N[C@@H]([C@@H](C)CC)C(=O)N(C)CC(=O)N(C)[C@H]2C/C=C\CCN(C2=O)[C@@H](Cc2ccc(C(F)(F)F)cc2)C(=O)N(C)CC(=O)N[C@@H](CCc2cc(F)c(C(F)(F)F)c(F)c2)C(=O)N2C[C@@H](C)C[C@H]2C(=O)NC2(CC(C)(C)C2)C(=O)N(C)[C@@H](C2CCCC2)C(=O)N1C [PP2040],10.5,A (a compound having 10 or more and less than 20 is denoted as A),A (a compound having 10 or more and less than 20 is denoted as A)

# Continued, in another order:
IC50 [2] [nM],SMILES,HRAS /KRAS [1],NRAS /KRAS [3]
11.6,CCCN(C)C(=O)[C@@H]1CC(=O)N(C)[C@@H](COCC)C(=O)N[C@@H]([C@@H](C)CC)C(=O)N(C)CC(=O)N(C)[C@H]2C/C=C\CCN(C2=O)[C@@H](Cc2ccc(C(F)(F)F)cc2)C(=O)N(C)CC(=O)N[C@@H](CCc2ccc(C(F)(F)F)c(OC)c2)C(=O)N2C[C@H](OCC)C[C@H]2C(=O)NC2(CC(C)(C)C2)C(=O)N(C)[C@@H](C2CCCC2)C(=O)N1C [PP2012],A (a compound having 10 or more and less than 20 is denoted as A),AA (a compound having 20 or more is denoted as AA)
7.7,CCCN(C)C(=O)[C@@H]1CC(=O)N(C)[C@@H](CC(F)F)C(=O)N[C@@H]([C@@H](C)CC)C(=O)N(C)CC(=O)N(C)[C@H]2C/C=C\CCN(C2=O)[C@@H](Cc2ccc(C(F)(F)F)cc2)C(=O)N(C)CC(=O)N[C@@H](CCc2ccc(C(F)(F)F)c(OC)c2)C(=O)N2C[C@H](OCC)C[C@H]2C(=O)NC2(CCC2)C(=O)N(C)[C@@H](C2CCCC2)C(=O)N1C [PP2013],B (a compound having 3 or more and less than 10 is denoted as B),A (a compound having 10 or more and less than 20 is denoted as A)
6.9,CCOC[C@H]1C(=O)N[C@@H]([C@@H](C)CC)C(=O)N(C)CC(=O)N(C)[C@H]2C/C=C\CCN(C2=O)[C@@H](Cc2ccc(C(F)(F)F)cc2)C(=O)N(C)CC(=O)N[C@@H](CCc2ccc(C(F)(F)F)c(OC)c2)C(=O)N2C[C@H](OCC)C[C@H]2C(=O)NC2(CC(C)(C)C2)C(=O)N(C)[C@@H](C2CCCC2)C(=O)N(C)[C@H](C(=O)N(C)CC)CC(=O)N1C [PP2014],A (a compound having 10 or more and less than 20 is denoted as A),A (a compound having 10 or more and less than 20 is denoted as A)
5.6,CCCN(C)C(=O)[C@@H]1CC(=O)N(C)[C@@H](COCC)C(=O)N[C@@H]([C@@H](C)CC)C(=O)N(C)CC(=O)N(C)[C@H]2C/C=C\CCN(C2=O)[C@@H](Cc2ccc(C(F)(F)F)cc2)C(=O)N(C)CC(=O)N[C@@H](CCc2ccc(C(F)(F)F)c(OC)c2)C(=O)N2C[C@H](OCC)C[C@H]2C(=O)NC2(CCC2)C(=O)N(C)[C@@H](C2CCCC2)C(=O)N1C [PP2015],B (a compound having 3 or more and less than 10 is denoted as B),A (a compound having 10 or more and less than 20 is denoted as A)
8.2,CCCOC[C@H]1C(=O)N[C@@H]([C@@H](C)CC)C(=O)N(C)CC(=O)N(C)[C@H]2C/C=C\CCN(C2=O)[C@@H](Cc2ccc(C(F)(F)F)cc2)C(=O)N(C)CC(=O)N[C@@H](CCc2ccc(C(F)(F)F)c(OC)c2)C(=O)N2C[C@H](OCC)C[C@H]2C(=O)NC2(CCC2)C(=O)N(C)[C@@H](C2CCCC2)C(=O)N(C)[C@H](C(=O)N(C)CC)CC(=O)N1C [PP2016],A (a compound having 10 or more and less than 20 is denoted as A),A (a compound having 10 or more and less than 20 is denoted as A)
5.3,CCCN(C)C(=O)[C@@H]1CC(=O)N(C)[C@@H](CCOC)C(=O)N[C@@H]([C@@H](C)CC)C(=O)N(C)CC(=O)N(C)[C@H]2C/C=C\CCN(C2=O)[C@@H](Cc2ccc(C(F)(F)F)cc2)C(=O)N(C)CC(=O)N[C@@H](CCc2ccc(C(F)(F)F)c(OC)c2)C(=O)N2C[C@H](OCC)C[C@H]2C(=O)NC2(CCC2)C(=O)N(C)[C@@H](C2CCCC2)C(=O)N1C [PP2018],B (a compound having 3 or more and less than 10 is denoted as B),A (a compound having 10 or more and less than 20 is denoted as A)
4.9,CCO[C@@H]1C[C@H]2C(=O)NC3(CCC3)C(=O)N(C)[C@@H](C3CCCC3)C(=O)N(C)[C@H](C(=O)N(C)CC)CC(=O)N(C)[C@@H](C3CC3)C(=O)N[C@@H]([C@@H](C)CC)C(=O)N(C)CC(=O)N(C)[C@H]3C/C=C\CCN(C3=O)[C@@H](Cc3ccc(C(F)(F)F)cc3)C(=O)N(C)CC(=O)N[C@@H](CCc3ccc(C(F)(F)F)c(OC)c3)C(=O)N2C1 [PP2021],B (a compound having 3 or more and less than 10 is denoted as B),A (a compound having 10 or more and less than 20 is denoted as A)
22.6,CCOC[C@H]1C(=O)N[C@@H]([C@@H](C)CC)C(=O)N(C)CC(=O)N(C)[C@H]2C/C=C\CCN(C2=O)[C@@H](Cc2ccc(C(F)(F)F)cc2)C(=O)N(C)CC(=O)N[C@@H](CCc2ccc(C(F)(F)F)c(OC)c2)C(=O)N2C[C@@H](C)C[C@H]2C(=O)NC2(CCC2)C(=O)N(C)[C@@H](C2CCCC2)C(=O)N(C)[C@H](C(=O)N(C)CC)CC(=O)N1C [PP2026],A (a compound having 10 or more and less than 20 is denoted as A),A (a compound having 10 or more and less than 20 is denoted as A)
